Experimental data from US9186421B2, “Establishment of rhesus monkey model of autoimmunity type 1 diabetes” (West China Hospital, Sichuan University, priority 2010, dated 2015).

Tests used:
[1] = test system: rhesus monkey model of autoimmune type 1 diabetes; assay: Insulin treatment of the rhesus monkey model of autoimmune type 1 diabetes; format: in vivo
Description: At present, insulin injection is the main treatment method of autoimmune type 1 diabetes. Insulin was applied to the rhesus monkey model of autoimmune type 1 diabetes in this experiment. The specific way was as follows:
1. According to the habit of eating twice per day of rhesus monkeys, different types of insulin were injected twice a day (9:30 am & 17:30 pm) in different doses, applied to the autoimmune type 1 diabetes model prepared by Example 1 of the present invention: combined treatment of (1) long-acting insulin: porcine insulin (protamine zinc insulin) produced by Wanbang Company (Xuzhou, China) and (2) short-acting insulin: ordinary porcine insulin produced by Wanbang Company (Xuzhou, China).
2. Initially, low dose of insulin (0.4 U/kg) was injected subcutaneously so as to avoid the occurrence of low blood glucose.
3. The fasting and postprandial glucose levels were monitored. The administration dosage was adjusted according to the blood glucose level, finally allowing the fasting and postprandial blood glucose to be less than 10 mmol/L and glycosylated hemoglobin to be less than 6.5%.

rhesus monkeys = assay: Diabetes model prepared by low dose STZ induction; format: in vivo, rhesus monkey
Description: Low dose of STZ was administered intravenously for 5 consecutive days, at a dose of 15-30 mg/kg per time; and administrated again on the 7th day and 14th day after last administration. Fasting glucose was observed once each week.
6 rhesus monkeys were used to prepare models according to the method of the present invention and 4 models were successfully prepared. […]

[2] = insulin s.c. twice a day, start 0.4 U/kg, dosage adjusted to blood glucose
[3] = established model after low dose STZ i.v.

Compound | fasting and postprandial blood glucose [1, 2] | glycosylated hemoglobin [1, 2] | therapeutic effect on autoimmune type 1 diabetes ([1]; long-acting plus short-acting porcine insulin) | fasting blood glucose, fluctuation (rhesus monkeys; after intravenous injection of STZ, 20 or 25 mg/kg per time, days 1-5, 12, 19) [mmol/L] | fasting blood glucose, consistently (rhesus monkeys; [3]) | serum C-peptide (rhesus monkeys; [3]) | glucagon expression-positive cells in the islet tissue (rhesus monkeys; immunohistochemistry, FIG. 3B) | models successfully prepared (rhesus monkeys; of 6 rhesus monkeys)
Insulin: combined treatment of long-acting porcine insulin (protamine zinc insulin) and short-acting ordinary porcine insulin, Wanbang Company | less than 10 mmol/L | less than 6.5% | better therapeutic effect | – | – | – | – | –
CN(N=O)C(=O)N[C@@H](C=O)[C@@H](O)[C@H](O)[C@H](O)CO [STZ, Streptozotocin] | – | – | – | 3.2 to 17.6 | higher than 11.1 mmol/L | less than 0.3 nM | above 90% | 4
